Molecules are shown by their SMILES.

The data set is described as follows: Human HepG2 cell viability assay in 384 well format. It is filed as toxicity, cell-based. More on the design: dose 125 nL, time 70.5 hour; cytotoxicity at 70.5 h: concentration not given beside the values. Particulars: HepG2 cells, read-out: Inhibition.
Regarding `COc1ccc(CCNC(=O)C2CC2)c(Cl)c1`, the cytotoxicity at 70.5 h is -1.42%.

`CC1(NC(=O)CC2CCc3ccccc32)CCOCC1` (configuration not stated): the cytotoxicity at 70.5 h is -2.46%.

As for `COCCOc1ccc(S(=O)(=O)Nc2cccc(O)c2F)cc1C`, the cytotoxicity at 70.5 h was -7.45%.

As for `CCN(Cc1cnn(C)c1)S(=O)(=O)c1ccc(NC(=O)C(C)(C)C)cc1`, the cytotoxicity at 70.5 h amounted to 2.92%.

Consider `CC1CN(C)CCN1C(=O)c1cccn1Cc1cccnc1` (configuration not stated), for which the cytotoxicity at 70.5 h is -7.82%.

As to `COc1ccc(C(=O)NC2CCN(c3ncccn3)CC2)cc1F`, the cytotoxicity at 70.5 h was -8.33%.

Consider `O=C(Cn1cccnc1=O)NCc1cccnc1OCC(F)(F)F`, for which the cytotoxicity at 70.5 h is 2.5%.

As to `Cc1cccc(S(=O)(=O)NC2CCN(CC(F)(F)F)C2)c1` (configuration not stated), the cytotoxicity at 70.5 h is -15.5%.

Take `Cc1cnn(C2CCCN(C(=O)c3cc(-c4cccs4)n[nH]3)C2)c1` (configuration not stated): the cytotoxicity at 70.5 h is -4.05%.

Consider `C=C(C)CN(CC)C(=O)Nc1ccccc1CN(C)C(C)=O`, for which the cytotoxicity at 70.5 h is -12.6%.

As for `COCCN(CC(F)F)c1cc(C(F)(F)F)nc2ncnn12`, the cytotoxicity at 70.5 h was -7.29%.

Regarding `CCOc1ccc(C(=O)NC2CCN(c3ncccn3)CC2)cc1C`, the cytotoxicity at 70.5 h was -0.65%.

`CCN(CC)CCN(CC(C)C)c1cc(C(F)(F)F)nc2ncnn12`: the cytotoxicity at 70.5 h turned out to be 0.687%.

Turning to `CC(NC(=O)c1ccc(C(N)=O)cc1)c1cccc(N2CCOC2=O)c1` (configuration not stated), the cytotoxicity at 70.5 h was 0.0239%.

In the case of `c1ccc2oc(N3CCC(c4nncn4C4CC4)CC3)nc2c1`, the cytotoxicity at 70.5 h is 29.8%.

For the compound `CC(O)CN(C)S(=O)(=O)c1ccc(C#N)cc1F` (configuration not stated), the cytotoxicity at 70.5 h was -2.23%.

For `COc1ccc(S(=O)(=O)Nc2cccnc2-n2cncn2)cc1C`, the cytotoxicity at 70.5 h came out at 0.714%.

`COc1cccc(NC(=O)CN(C(C)C)C2CC2)c1`: the cytotoxicity at 70.5 h is -2.69%.

Turning to `CC1CN(Cc2cccc(CN)c2)CCO1` (configuration not stated), the cytotoxicity at 70.5 h is -9.2%.

Regarding `CC(C(=O)NCc1ccc(F)cc1)N(C)CCN1CCOCC1` (configuration not stated), the cytotoxicity at 70.5 h turned out to be 24.4%.

Take `Cc1nc(C)c(C(=O)N2CCCc3c(F)ccc(F)c32)o1`: the cytotoxicity at 70.5 h is -9.33%.

Regarding `Cc1c(F)cccc1S(=O)(=O)N(C)CC(C)O` (configuration not stated), the cytotoxicity at 70.5 h was -11.6%.

Take `CN(CC(=O)N1CCCC1)C(=O)c1cccn1CCc1ccccc1`: the cytotoxicity at 70.5 h was -7.1%.

Regarding `COc1ccc(F)cc1CN1CCN(Cc2nccn2C)C(C)C1` (configuration not stated), the cytotoxicity at 70.5 h was found to be 9.37%.

As to `COc1cc(CNC2CCCN(c3ncccn3)C2)cc2c1OCO2` (configuration not stated), the cytotoxicity at 70.5 h was -5.86%.

With `COc1ccccc1-c1csc(-c2cccc(C(=O)O)c2)n1`, the cytotoxicity at 70.5 h was -4.2%.

Turning to `CN1CCOC(CNC(=O)CCc2cc(F)ccc2F)C1` (configuration not stated), the cytotoxicity at 70.5 h is -4.57%.

As to `COc1ccc(-c2csc(-c3cccc(C(=O)O)c3)n2)cc1OC`, the cytotoxicity at 70.5 h was -9.98%.

Consider `CCC(CC)(CNC(=O)OC(C)(C)C)NC(=O)C1CCCO1` (configuration not stated), for which the cytotoxicity at 70.5 h was -3.25%.

Consider `CCOc1ccc(NC2CCN(CC(F)(F)F)C2=O)cc1C` (configuration not stated), for which the cytotoxicity at 70.5 h is -5.71%.

For `CSc1ccc(NCC(=O)NCC(=O)N2CCCC2)cc1F`, the cytotoxicity at 70.5 h was -2.3%.

`CSc1ccc(NCC(=O)NC(=O)NCC(F)(F)F)cc1F`: the cytotoxicity at 70.5 h worked out at 19.5%.

On to `Cc1cnn(CCNCC(=O)Nc2ccc(Br)cn2)c1`, for which the cytotoxicity at 70.5 h was -4.64%.

As for `O=C(Cc1cccs1)N1CCOCC1c1ccccc1` (configuration not stated), the cytotoxicity at 70.5 h was found to be 15.2%.

`CN(Cc1ccsc1)C(=O)c1cc(S(=O)(=O)N(C)C)ccc1Cl`: the cytotoxicity at 70.5 h was -7.18%.

In the case of `CS(=O)(=O)N1CCCCCC1C1CCN(Cc2nc(C3CC3)no2)CC1` (configuration not stated), the cytotoxicity at 70.5 h was 5.88%.

Turning to `CCOCC1CCCN(C(=O)NCc2cn3c(C)cccc3n2)C1` (configuration not stated), the cytotoxicity at 70.5 h worked out at 9.89%.

With `Cc1cnc(CN(Cc2ccc(Cl)s2)C2CCN(C)C2)o1` (configuration not stated), the cytotoxicity at 70.5 h was -9.93%.

`CC(=O)N(Cc1ncc(C)o1)C1CCN(Cc2cccnc2)C1` (configuration not stated): the cytotoxicity at 70.5 h was found to be 2.44%.

On to `Cc1ccc(CNCc2nnc3n2CC(C(F)(F)F)CC3)o1` (configuration not stated), for which the cytotoxicity at 70.5 h came to 2.88%.

As for `Cc1c(C(=O)N2CCCSCC2)nnn1-c1ccccc1Cl`, the cytotoxicity at 70.5 h is -8.81%.

`CCNC(=O)NC(=O)C(C)N(C)CCOc1ccccc1C` (configuration not stated): the cytotoxicity at 70.5 h is -12.4%.

`Cc1cc(C)c(CNC(=O)C(C)Oc2ccccc2C#N)c(=O)[nH]1` (configuration not stated): the cytotoxicity at 70.5 h was -13.5%.

As for `Cc1cc(C)c(CNC(=O)C(C)Oc2cccc(C#N)c2)c(=O)[nH]1` (configuration not stated), the cytotoxicity at 70.5 h is -11.6%.

Regarding `Cc1nc(CCNC(=O)NCC(c2ccco2)N(C)C)cs1` (configuration not stated), the cytotoxicity at 70.5 h is -14.9%.

On to `Cc1cc(C)c(CNC(=O)C(C)Oc2ccccc2F)c(=O)[nH]1` (configuration not stated), for which the cytotoxicity at 70.5 h came out at 2.57%.

For the compound `COc1ccc2oc(C(C)NC(=O)NCc3noc(C)n3)c(C)c2c1` (configuration not stated), the cytotoxicity at 70.5 h was -12%.

For the compound `Cc1cc(C)n(-c2cncc(NCCNC(=O)C3CCCC3)n2)n1`, the cytotoxicity at 70.5 h was -9.3%.

Consider `CC(C)n1cc(S(=O)(=O)N2CCCC(N3CCCCC3)C2)cn1` (configuration not stated), for which the cytotoxicity at 70.5 h is -16.1%.

As to `CN(Cc1nccn1C)S(=O)(=O)N1CCCC1c1ccco1` (configuration not stated), the cytotoxicity at 70.5 h was -11.4%.

As to `Cc1ccc(C2CCCN2S(=O)(=O)N(C)Cc2nccn2C)o1` (configuration not stated), the cytotoxicity at 70.5 h was 5.77%.

Take `O=C(NCc1ccc2c(c1)OCO2)c1ccc(N2CCCCCC2)nc1`: the cytotoxicity at 70.5 h turned out to be 2.76%.

In the case of `O=C(Nc1nc(-c2ccccc2)ns1)N1CCC(CO)CC1`, the cytotoxicity at 70.5 h is -12.6%.

Turning to `Cc1cc(C)n(-c2cncc(NCCNC(=O)C(C)(C)C)n2)n1`, the cytotoxicity at 70.5 h is -9.22%.

On to `COc1ccc(CNCc2nnc3n2CC(C(F)(F)F)CC3)cc1` (configuration not stated), for which the cytotoxicity at 70.5 h amounted to 26.4%.

On to `CCc1nnc(SC2CCCN(c3cnn(C)c3)C2=O)n1C` (configuration not stated), for which the cytotoxicity at 70.5 h is -12.6%.

As to `CCc1nnc2n1CCN(CC(=O)N(CC)C1=CCCCC1)C2`, the cytotoxicity at 70.5 h turned out to be 14.1%.

Turning to `Cc1ncsc1CN(C)Cc1cc2c(cc1OC(F)F)OCO2`, the cytotoxicity at 70.5 h turned out to be 5.16%.

On to `Cc1nn(C)c(N(C)C)c1CNCc1ccc(Cn2cccn2)cc1`, for which the cytotoxicity at 70.5 h was -4.86%.

For the compound `CCn1c(C)nnc1CN(C)C1CCN(Cc2ccccn2)C1` (configuration not stated), the cytotoxicity at 70.5 h was -2.44%.

`O=C(NCC1CC1)c1cc(Cl)c2c(c1)OCCCO2`: the cytotoxicity at 70.5 h came to 8.95%.

Consider `COc1ccc(C)cc1CNC(=O)C1=NN(c2ccccc2)C(=O)CN1`, for which the cytotoxicity at 70.5 h was -5.19%.

In the case of `COc1ncccc1CNC(=O)C1=NN(c2ccccc2)C(=O)CN1`, the cytotoxicity at 70.5 h was 0.82%.

Regarding `O=C(NCc1ccccn1)NCC(c1ccco1)N1CCCCC1` (configuration not stated), the cytotoxicity at 70.5 h is -5.04%.

With `Cc1nc(CN2CCN(C(=O)CC(C)(C)c3ccccc3)CC2)no1`, the cytotoxicity at 70.5 h was -5.37%.

As for `O=C(Cn1cc(I)cn1)N1CCOCC1`, the cytotoxicity at 70.5 h was -3.24%.

As to `C[S+]([O-])c1nncn1CC(=O)c1ccc2c(c1)CCC2` (configuration not stated), the cytotoxicity at 70.5 h turned out to be 8.46%.

Turning to `COc1ccccc1NC(=O)NC(C)c1nc[nH]n1` (configuration not stated), the cytotoxicity at 70.5 h stood at 0.321%.

As to `CC(NC(=O)Nc1ccc(F)c(F)c1)c1nc[nH]n1` (configuration not stated), the cytotoxicity at 70.5 h was -2.38%.

As to `CS(=O)(=O)NC(=O)c1cc(Cl)c2c(c1)OCCCO2`, the cytotoxicity at 70.5 h is 0.437%.

Regarding `CCN1CC(C(=O)NC(C)(C)C)CC1=O` (configuration not stated), the cytotoxicity at 70.5 h was -6.02%.

Regarding `CCC(C)(NCc1cccc(NC(C)=O)c1)c1nc(C)cs1` (configuration not stated), the cytotoxicity at 70.5 h was -0.722%.

As to `Cc1nn(C)c(N(C)C)c1CNCc1ccc(N(C)C)nc1`, the cytotoxicity at 70.5 h is -2.4%.

For the compound `Cc1cc(C(=O)Cn2cnnc2[S+](C)[O-])cc(C)c1F` (configuration not stated), the cytotoxicity at 70.5 h turned out to be 33.6%.

Take `Cc1ccc(CNCc2c(C)nn(C)c2N(C)C)cn1`: the cytotoxicity at 70.5 h is -3.06%.

On to `CCC(C)(NCC(=O)NC(C)C)c1nc(C)cs1` (configuration not stated), for which the cytotoxicity at 70.5 h was -3.79%.

Regarding `CC(C)CCN1CCN(Cc2nc(C(C)C)no2)CC1`, the cytotoxicity at 70.5 h was -0.333%.

For the compound `CCCc1noc(CN2CCN(CCC(C)C)CC2)n1`, the cytotoxicity at 70.5 h is -2.49%.

For the compound `CCc1cc(CNC(=O)NCC(c2ccco2)N2CCCC2)[nH]n1` (configuration not stated), the cytotoxicity at 70.5 h was -3.15%.

For `Cc1nc(CN2CCN(C(=O)CCc3cccnc3)CC2)no1`, the cytotoxicity at 70.5 h came to 16.4%.

As for `Cc1cc(C(N)=O)ccc1NC(=O)c1nc(N2CCCCC2)ncc1Cl`, the cytotoxicity at 70.5 h is 3.51%.

As for `O=C(Nc1ccc(N2CCCCC2)nc1)N1CCc2sccc2C1`, the cytotoxicity at 70.5 h turned out to be 16.2%.

In the case of `COc1cc(CN(C)C(=O)NCCC(=O)NC2CCCC2)ccc1SC`, the cytotoxicity at 70.5 h came to 14.4%.

`Cc1ccc(C(=O)NCCCN(C(C)C)S(C)(=O)=O)c(=O)[nH]1`: the cytotoxicity at 70.5 h is -5.61%.

For `Cc1ccc(C(=O)NCCCS(=O)(=O)c2ccccc2)c(=O)[nH]1`, the cytotoxicity at 70.5 h was -4.85%.

On to `CN(C)c1ccc(NC(=O)N2CCc3sccc3C2)cn1`, for which the cytotoxicity at 70.5 h came to 4.85%.

`O=C(c1cc2c([nH]c1=O)CCC2)N1CCCC1c1cccnc1` (configuration not stated): the cytotoxicity at 70.5 h came out at 14.6%.

As for `CC(C)n1c(C2CCCN(CC(=O)NC(N)=O)C2)nc2ccccc21` (configuration not stated), the cytotoxicity at 70.5 h was -1.95%.

For the compound `COCCNC(=O)Nc1cc2c(cc1SC)OCCO2`, the cytotoxicity at 70.5 h is -4.52%.

For the compound `CCc1nc(CCNC(=O)C2CC2)sc1C`, the cytotoxicity at 70.5 h was -1.22%.

Regarding `c1cc(CCN2CCC(NCc3ccsc3)CC2)ccn1`, the cytotoxicity at 70.5 h is 15.8%.

With `CSc1cc2c(cc1NC(=O)NCC1CCOC1)OCCO2` (configuration not stated), the cytotoxicity at 70.5 h is -1.8%.

Consider `CC(CNC(=O)N1CCNC(=O)CC1)Cc1cccs1` (configuration not stated), for which the cytotoxicity at 70.5 h was found to be 0.139%.

On to `CSc1ccc(CNC2CCN(CCc3ccncc3)CC2)cc1`, for which the cytotoxicity at 70.5 h is -1.82%.

As for `Cc1occc1-c1nc(-c2cccc(CN3CCOCC3)c2)no1`, the cytotoxicity at 70.5 h worked out at 0.585%.

Take `CCSC1(CNc2ncc(Br)cn2)CCOCC1`: the cytotoxicity at 70.5 h is -5.62%.

In the case of `COc1cccc(CNc2cc(C)nc(-c3ccncc3)n2)c1O`, the cytotoxicity at 70.5 h is -7.57%.

With `Cc1cc(-c2nc(-c3cccc(CN4CCOCC4)c3)no2)no1`, the cytotoxicity at 70.5 h was 0.395%.

Take `Cc1c(-c2nc(-c3cccc(CN4CCOCC4)c3)no2)cnn1C`: the cytotoxicity at 70.5 h was -13.7%.

`CCCc1nc(CNc2cccc(C(=O)N3CCCC(O)C3)c2)no1` (configuration not stated): the cytotoxicity at 70.5 h is -4.84%.

In the case of `FC(F)(F)c1cccnc1N1CCC(OC2CCOCC2)CC1`, the cytotoxicity at 70.5 h was -6.19%.

Turning to `O=C(N1CCC(Oc2ccncc2)C1)C1(c2ccc(F)cc2)CC1` (configuration not stated), the cytotoxicity at 70.5 h came out at 5.93%.
